Test results published in US8937080B2, “Pyrimidine substituted macrocyclic HCV inhibitors” (Medivir AB, priority 2007, dated 2015).
Like-named read-outs stand apart in the source and are kept apart here.

Columns and labels:
[1] = rcm bond, 14-membered ring, Hoveyda-Grubbs II, DCE, 16.0 h
[2] = test system: HCV replicons (wild type NS3-NS5B regions of HCV type 1b) in Huh-7 luc/neo cells; assay: Replicon assay (Huh-Luc cells, luciferase readout); format: cell-based; conditions: Hepatitis C virus, Huh-7, 72 h, incubation of three days, luciferase activity
Excerpt: The compounds of formula (I) were examined for activity in the inhibition of HCV RNA replication in a cellular assay. […] The cellular assay was based on a bicistronic expression construct, as described by Lohmann et al. (1999) Science vol. 285 pp. 110-113 with modifications described by Krieger et al. (2001) Journal of Virology 75: 4614-4624, in a multi-target screening strategy. In essence, the method was as follows.
The assay utilized the stably transfected cell line Huh-7 luc/neo (hereafter referred to as Huh-Luc). This cell line harbors an RNA encoding a bicistronic expression construct comprising the wild type NS3-NS5B regions of HCV type 1b translated from an Internal Ribosome Entry Site (IRES) from encephalomyocarditis virus (EMCV), preceded by a reporter portion (FfL-luciferase), and a selectable marker portion (neo^R, neomycine phosphotransferase). The construct is bordered by 5′ and 3′ NTRs (non-translated regions) from HCV type 1b. Continued culture of the replicon cells in the presence of G418 (neo^R) is dependent on the replication of the HCV RNA. The stably transfected replicon cells that express HCV RNA, which replicates autonomously and to high levels, encoding inter alia luciferase, are used for screening the antiviral compounds.
The replicon cells were plated in 384 well plates in the presence of the test and control compounds which were added in various concentrations. Following an incubation of three days, HCV replication was measured by assaying luciferase activity (using standard luciferase assay substrates and reagents and a Perkin Elmer ViewLux™ ultraHTS microplate imager). Replicon cells in the control cultures have high luciferase expression in the absence of any inhibitor. The inhibitory activity of the compound on luciferase activity was monitored on the Huh-Luc cells, enabling a dose-response curve for each test compound. EC50 values were then calculated, which value represents the amount of the compound required to decrease by 50% the level of detected luciferase activity, or more specifically, the ability of the genetically linked HCV replicon RNA to replicate.

[3] = molecular target: HCV NS3/4A protease complexes (full-length hepatitis C NS3 protease enzyme with NS4A cofactor) (Hepatitis C virus genotype 1a, UniProt P27958); assay: Inhibition assay (enzymatic assay, depsipeptide substrate hydrolysis); format: biochemical; conditions: enzyme 1 nM, 25 μM NS4A cofactor, 0.5 μM substrate, 30° C., competitive inhibition model
Sequence of HCV NS3/4A protease complexes (full-length hepatitis C NS3 protease enzyme with NS4A cofactor) (P27958 1027-1657, other chains not shown): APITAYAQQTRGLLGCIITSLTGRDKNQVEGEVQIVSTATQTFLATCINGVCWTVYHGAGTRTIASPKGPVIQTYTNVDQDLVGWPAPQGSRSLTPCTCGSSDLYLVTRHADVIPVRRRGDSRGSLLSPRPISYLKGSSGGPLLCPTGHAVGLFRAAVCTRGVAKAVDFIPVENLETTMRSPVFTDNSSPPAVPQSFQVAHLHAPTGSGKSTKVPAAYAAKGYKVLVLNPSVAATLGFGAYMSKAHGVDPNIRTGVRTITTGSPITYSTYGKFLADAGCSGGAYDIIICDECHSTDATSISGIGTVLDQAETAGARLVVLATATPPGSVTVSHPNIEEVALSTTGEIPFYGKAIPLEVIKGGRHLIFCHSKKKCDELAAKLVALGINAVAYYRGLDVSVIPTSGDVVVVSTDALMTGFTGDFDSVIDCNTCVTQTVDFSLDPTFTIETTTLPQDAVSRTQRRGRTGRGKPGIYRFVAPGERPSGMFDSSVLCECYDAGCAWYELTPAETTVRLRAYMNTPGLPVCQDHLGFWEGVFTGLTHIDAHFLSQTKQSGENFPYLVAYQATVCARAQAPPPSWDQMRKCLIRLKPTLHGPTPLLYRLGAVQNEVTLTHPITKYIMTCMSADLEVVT
Description: The aim of this in vitro assay is to measure the inhibition of HCV NS3/4A protease complexes by the compounds of the present invention. This assay provides an indication of how effective compounds of the present invention would be in inhibiting HCV NS3/4A proteolytic activity.
The inhibition of full-length hepatitis C NS3 protease enzyme was measured essentially as described in Poliakov, 2002 Prot Expression & Purification 25 363 371. Briefly, the hydrolysis of a depsipeptide substrate, Ac-DED(Edans)EEAbuψ[COO]ASK(Dabcyl)-NH2 (AnaSpec, San José, USA), was measured spectrofluorometrically in the presence of a peptide cofactor, KKGSVVIVGRIVLSGK (Åke Engström, Department of Medical Biochemistry and Microbiology, Uppsala University, Sweden). [Landro, 1997 #Biochem 36 9340-9348]. The enzyme (1 nM) was incubated in 50 mM HEPES, pH 7.5, 10 mM DTT, 40% glycerol, 0.1% n-octyl-D-glucoside, with 25 μM NS4A cofactor and inhibitor at 30° C. for 10 min, whereupon the reaction was initiated by addition of 0.5 μM substrate. Inhibitors were dissolved in DMSO, sonicated for 30 sec. and vortexed. The solutions were stored at −20° C. between measurements.
The final concentration of DMSO in the assay sample was adjusted to 3.3%. The rate of hydrolysis was corrected for inner filter effects according to published procedures.
[Liu, 1999 Analytical Biochemistry 267 331-335]. Ki values were estimated by non-linear regression analysis (GraFit, Erithacus Software, Staines, MX, UK), using a model for competitive inhibition and a fixed value for Km (0.15 μM). A minimum of two replicates was performed for all measurements.

SMILES	ring closure, isolated yield ([1]; from C=CCCCCN(C)C(=O)C1CC(Oc2cc(-c3ccccc3)nc(-c3ccccc3)n2)CC1C(=O)NC1(C(=O)OCC)CC1C=C, 1.66 mM) [%]	ring closure, isolated yield ([1]; from C=CCCCCN(C)C(=O)C1CC(Oc2cc(-c3ccccc3)nc(OC)n2)CC1C(=O)NC1(C(=O)OCC)CC1C=C, 1.83 mM) [%]	EC50 [2] [nM]	Ki [3] [nM]
CCOC(=O)C12CC1C=CCCCCN(C)C(=O)C1CC(Oc3cc(-c4ccccc4)nc(-c4ccccc4)n3)CC1C(=O)N2 (centres unmarked)	76			
CCOC(=O)C12CC1C=CCCCCN(C)C(=O)C1CC(Oc3cc(-c4ccccc4)nc(OC)n3)CC1C(=O)N2 (centres unmarked)		70		
COc1nc(OC2CC3C(=O)NC4(C(=O)NS(=O)(=O)C5CC5)CC4C=CCCCCN(C)C(=O)N3C2)cc(-c2ccccc2)n1 (centres unmarked) [Example 1, Cyclopropanesulfonic acid [17-(2-methoxy-6-phenyl-pyrimidin-4-yloxy)-13-methyl-2,14-dioxo-3,13,15-triaza-tricyclo[13.3.0.0*4,6*]octadec-7-ene-4-carbonyl]-amide]			1000 to 10000	0.1 to 4.9
COc1nc(OC2CC3C(=O)NC4(C(=O)NS(=O)(=O)C5CC5)CC4C=CCCCCCNC(=O)N3C2)cc(-c2ccccc2)n1 (centres unmarked) [Example 2, Cyclopropanesulfonic acid [18-(2-methoxy-6-phenylpyrimidin-4-yloxy)-2,15-dioxo-3,14,16-triaza-tricyclo[14.3.0.0*4,6*]nonadec-7-ene-4-carbonyl]-amide]			1000 to 10000	0.1 to 4.9
COc1nc(OC2CC3C(=O)NC4(C(=O)NS(=O)(=O)C5CC5)CC4C=CCCCCN(C)C(=O)C3C2)cc(C(C)(C)C)n1 (centres unmarked) [Example 3, Cyclopropanesulfonic acid [17-(6-tert-butyl-2-methoxypyrimidin-4-yloxy)-13-methyl-2,14-dioxo-3,13-diaza-tricyclo[13.3.0.0*4,6*]octadec-7-ene-4-carbonyl]amide]			1000 to 10000	5 to 99.9
COc1nc(O[C@@H]2C[C@H]3C(=O)N[C@]4(C(=O)NS(=O)(=O)C5(C)CC5)C[C@H]4/C=C\CCCCCNC(=O)N3C2)cc(-c2ccccc2)n1 [Example 4, 1-Methyl-cyclopropanesulfonic acid [18-(2-methoxy-6-phenylpyrimidin-4-yloxy)-2,15-dioxo-3,14,16-triaza-tricyclo[14.3.0.0*4,6*]nonadec-7-ene-4-carbonyl]-amide]			200 to 990	0.1 to 4.9
COc1nc(O[C@@H]2C[C@H]3C(=O)N[C@]4(C(=O)NS(=O)(=O)C5(C)CC5)C[C@H]4/C=C\CCCCN(C)C(=O)[C@@H]3C2)cc(C(C)(C)C)n1 [Example 5, 1-Methyl-cyclopropanesulfonic acid [17-(6-tert-butyl-2-methoxy-pyrimidin-4-yloxy)-13-methyl-2,14-dioxo-3,13-diaza-tricyclo[13.3.0.0*4,6*]octadec-7-ene-4-carbonyl]-amide]			> 10000	100 to 1000
COc1cc(OC2CC3C(=O)NC4(C(=O)NS(=O)(=O)C5CC5)CC4C=CCCCCCNC(=O)N3C2)nc(-c2ccccc2)n1 (centres unmarked) [Example 6, Cyclopropanesulfonic acid [18-(6-methoxy-2-phenylpyrimidin-4-yloxy)-2,15-dioxo-3,14,16-triaza-tricyclo[14.3.0.0*4,6*]nonadec-7-ene-4-carbonyl]-amide]			0.5 to 199	0.1 to 4.9
COc1cc(OC2CC3C(=O)NC4(C(=O)NS(=O)(=O)C5(C)CC5)CC4C=CCCCCN(C)C(=O)C3C2)nc(-c2ccccc2)n1 (centres unmarked) [Example 7, 1-Methyl-cyclopropanesulfonic acid [17-(6-methoxy-2-phenylpyrimidin-4-yloxy)-13-methyl-2,14-dioxo-3,13-diaza-tricyclo[13.3.0.0*4,6*]octadec-7-ene-4-carbonyl]-amide]			0.5 to 199	0.1 to 4.9
COc1cc(O[C@@H]2C[C@H]3C(=O)N[C@]4(C(=O)NS(=O)(=O)c5cccs5)C[C@H]4/C=C\CCCCN(C)C(=O)[C@@H]3C2)nc(-c2ccccc2)n1 [Example 9, Thiophene-2-sulfonic acid [17-(6-methoxy-2-phenylpyrimidin-4-yloxy)-13-methyl-2,14-dioxo-3,13-diaza-tricyclo[13.3.0.0*4,6*]octadec-7-ene-4-carbonyl]-amide]			1000 to 10000	
CN1CCCC/C=C\[C@@H]2C[C@@]2(C(=O)NS(=O)(=O)C2CC2)NC(=O)[C@@H]2C[C@@H](Oc3ccnc(N4CCOCC4)n3)C[C@H]2C1=O [Example 11, Cyclopropanesulfonic acid [13-methyl-17-(2-morpholin-4-yl-pyrimidin-4-yloxy)-2,14-dioxo-3,13-diaza-tricyclo[13.3.0.0*4,6*]octadec-7-ene-4-carbonyl]-amide]			> 10000	5 to 99.9
CC(C)Nc1nccc(O[C@@H]2C[C@H]3C(=O)N[C@]4(C(=O)NS(=O)(=O)C5CC5)C[C@H]4/C=C\CCCCN(C)C(=O)[C@@H]3C2)n1 [Example 12, Cyclopropanesulfonic acid [17-(2-isopropylaminopyrimidin-4-yloxy)-13-methyl-2,14-dioxo-3,13-diaza-tricyclo[13.3.0.0*4,6*]octadec-7-ene-4-carbonyl]-amide]			> 10000	5 to 99.9
COc1nc(O[C@@H]2C[C@H]3C(=O)N[C@]4(C(=O)NS(=O)(=O)C5(C)CC5)C[C@H]4/C=C\CCCCN(C)C(=O)[C@@H]3C2)cc(-c2ccccc2)n1 [Example 14, 1-Methyl-cyclopropanesulfonic acid [17-(2-methoxy-6-phenyl-pyrimidin-4-yloxy)-13-methyl-2,14-dioxo-3,13-diaza-tricyclo[13.3.0.0*4,6*]octadec-7-ene-4-carbonyl]-amide]			200 to 990	5 to 99.9
COc1ccc(-c2cc(OC3CC4C(=O)NC5(C(=O)NS(=O)(=O)C6CC6)CC5C=CCCCCN(C)C(=O)C4C3)nc(OC)n2)cc1 (centres unmarked) [Example 16, Cyclopropanesulfonic acid {17-[2-methoxy-6-(4-methoxy-phenyl)-pyrimidin-4-yloxy]-13-methyl-2,14-dioxo-3,13-diaza-tricyclo[13.3.0.0*4,6*]octadec-7-ene-4-carbonyl}-amide]			200 to 990	0.1 to 4.9
CN1CCCCC=CC2CC2(C(=O)NS(=O)(=O)C2CC2)NC(=O)C2CC(Oc3cc(-c4ccccc4)nc(-c4ccccc4)n3)CC2C1=O (centres unmarked) [Example 17, Cyclopropanesulfonic acid [17-(2,6-diphenyl-pyrimidin-4-yloxy)-13-methyl-2,14-dioxo-3,13-diaza-tricyclo[13.3.0.0*4,6*]octadec-7-ene-4-carbonyl]-amide]			200 to 990	0.1 to 4.9
COc1cccc(-c2cc(O[C@@H]3C[C@H]4C(=O)N[C@]5(C(=O)NS(=O)(=O)C6CC6)C[C@H]5/C=C\CCCCN(C)C(=O)[C@@H]4C3)nc(OC)n2)c1 [Example 24, Cyclopropanesulfonic acid {17-[2-methoxy-6-(3-methoxy-phenyl)-pyrimidin-4-yloxy]-13-methyl-2,14-dioxo-3,13-diaza-tricyclo[13.3.0.0*4,6*]octadec-7-ene-4-carbonyl}-amide]			0.5 to 199	
COc1cccc(-c2cc(O[C@@H]3C[C@H]4C(=O)N[C@]5(C(=O)NS(=O)(=O)C6(C)CC6)C[C@H]5/C=C\CCCCN(C)C(=O)[C@@H]4C3)nc(OC)n2)c1 [Example 25, 1-Methyl-cyclopropanesulfonic acid {17-[2-methoxy-6-(3-methoxy-phenyl)-pyrimidin-4-yloxy]-13-methyl-2,14-dioxo-3,13-diaza-tricyclo[13.3.0.0*4,6*]octadec-7-ene-4-carbonyl}-amide]			0.5 to 199	
